Reference: patent US6534325B1, “Immunoassay for the detection of amphetamines, methamphetamines and methylenedioxy designer amphetamines” (priority 2000, dated 2003)
Like-named read-outs stand apart in the source and are kept apart here.

Legend:
[1] = tested on: amphetamine and methamphetamine monoclonal antibodies (mouse); experiment: Roche Hitachi AMP/MDMA immunoassay (method of the invention, MDMA calibrator), cross-reactivity; conditions: cutoff 300 ng/ml, MDMA calibrator, HITACHI 917 analyzer
[2] = tested on: amphetamine antibody and methamphetamine antibody; conditions: cutoff 500 ng/ml, currently marketed assay, cited from earlier work
[3] = tested on: amphetamine and methamphetamine monoclonal antibodies (mouse); experiment: Roche Hitachi AMP/MDMA immunoassay with MDA calibrator, cross-reactivity; conditions: cutoff 300 ng/ml, HITACHI 717 analyzer
[4] = tested on: amphetamine antibody and methamphetamine antibody; conditions: cutoff 1000 ng/ml, currently marketed assay, cited from earlier work
[5] = tested on: amphetamine antibody and methamphetamine antibody; conditions: cutoff 500 ng/ml, currently marketed assay, cited from earlier work; remark: listed apart in the source
[6] = tested on: amphetamine antibody and methamphetamine antibody; conditions: cutoff 1000 ng/ml, currently marketed assay, cited from earlier work; remark: listed apart in the source

| SMILES | Cross-reactivity, Roche Hitachi AMP/MDMA [1] | Cross-reactivity, Roche Integra AMPSC [2] | Cross-reactivity, Roche Hitachi AMP/MDMA, MDA used as calibrator [3] | Cross-reactivity, CEDIA DAU AMP [4] | Cross-reactivity, Roche Hitachi AMP [5] | Cross-reactivity, Abbott TDX AMP/methAMP [6] | further results |
| --- | --- | --- | --- | --- | --- | --- | --- |
| CNC(C)Cc1ccc2c(c1)OCO2 (racemic) [MDMA, (±)-3,4 methylenedioxymethamphetamine] | 100.0% | 79% | 81.0% | 69% | 36% | 97% | – |
| CN[C@@H](C)[C@H](O)c1ccccc1 (racemic) [dl-ephedrine, ephedrine] | <0.3% | <0.1% | 0.34% | 0.4% | <0.1% | – | – |
| CC(N)Cc1ccc2c(c1)OCO2 (racemic) [MDA, (±)-3,4-methylenedioxyamphetamine] | 25.0% | 40% | 100.0% | 1.9% | 35.5% | 148% | – |
| CN[C@@H](C)Cc1ccccc1 [l-MAMP, methamphetamine] | – | 12% | 24.7% | – | – | – | Cross-reactivity, Roche Hitachi AMP/MDMA ([1]; listed as 1-MAMP): 18%; Cross-reactivity, CEDIA DAU AMP ([4]; listed as 1-MAMP): 12%; Cross-reactivity, Roche Hitachi AMP ([5]; listed as 1-MAMP): 0.8%; Cross-reactivity, Abbott TDX AMP/methAMP ([6]; listed as 1-MAMP): 7.2% |
| CC(N)Cc1ccccc1 (stereo not drawn) [l-AMP, amphetamine] | – | – | 15.2% | – | – | – | Cross-reactivity, Roche Hitachi AMP/MDMA ([1]; listed as 1-AMP): 3.8%; Cross-reactivity, Roche Integra AMPSC ([2]; listed as 1-AMP): 4.2%; Cross-reactivity, CEDIA DAU AMP ([4]; listed as 1-AMP): 3.0%; Cross-reactivity, Roche Hitachi AMP ([5]; listed as 1-AMP): 6%; Cross-reactivity, Abbott TDX AMP/methAMP ([6]; listed as 1-AMP): 56.9% |
| CNC(C)Cc1ccc(O)c(OC)c1 (stereo not drawn) [HMMA, 4-hydroxy-3-methoxymethamphetamine] | <0.3% | – | – | – | – | – | – |
| CC(N)Cc1ccccc1 (stereo not drawn) [d-AMP, amphetamine] | 97.0% | 100% | 319.0% | 101% | 100% | 100% | – |
| CC(N)C(O)c1ccccc1 (stereo not drawn) [l-PPA, phenylpropanolamine] | 0.6% | 1.1% | 6.2% | – | 1.5% | – | – |
| CN[C@@H](C)Cc1ccccc1 [d-MAMP, methamphetamine] | 300.0% | 12% | 269.0% | 100% | 82.2% | 97.8% | – |
| CCC(N)Cc1ccc2c(c1)OCO2 (racemic) [BDB, (±)-(3,4-methylenedioxyphenyl)-2-butanamine] | 4.7% | – | – | – | – | – | – |
| CCC(Cc1ccc2c(c1)OCO2)NC (racemic) [MBDB, (±)-N-methyl-1-(3,4-methylenedioxyphenyl)-2-butanamine] | 70.0% | – | – | – | – | – | – |
